Data taken from patent publication US9884063B2, “Amido-substituted azole compounds” (Bayer Pharma Aktiengesellschaft, priority 2014, dated 2018).
Structures can show the parent of a compound that is named as a salt.

Assays:
[1] = molecular target: T1, TNKS1 (Homo sapiens, UniProt O95271); assay: Modified TNKS1 Assay 3 (BPS kit #80573, biotin-NAD+, 96 well); format: biochemical; conditions: human TNKS1, BPS kit #80573, 96 well
T1 sequence (O95271 1-1327): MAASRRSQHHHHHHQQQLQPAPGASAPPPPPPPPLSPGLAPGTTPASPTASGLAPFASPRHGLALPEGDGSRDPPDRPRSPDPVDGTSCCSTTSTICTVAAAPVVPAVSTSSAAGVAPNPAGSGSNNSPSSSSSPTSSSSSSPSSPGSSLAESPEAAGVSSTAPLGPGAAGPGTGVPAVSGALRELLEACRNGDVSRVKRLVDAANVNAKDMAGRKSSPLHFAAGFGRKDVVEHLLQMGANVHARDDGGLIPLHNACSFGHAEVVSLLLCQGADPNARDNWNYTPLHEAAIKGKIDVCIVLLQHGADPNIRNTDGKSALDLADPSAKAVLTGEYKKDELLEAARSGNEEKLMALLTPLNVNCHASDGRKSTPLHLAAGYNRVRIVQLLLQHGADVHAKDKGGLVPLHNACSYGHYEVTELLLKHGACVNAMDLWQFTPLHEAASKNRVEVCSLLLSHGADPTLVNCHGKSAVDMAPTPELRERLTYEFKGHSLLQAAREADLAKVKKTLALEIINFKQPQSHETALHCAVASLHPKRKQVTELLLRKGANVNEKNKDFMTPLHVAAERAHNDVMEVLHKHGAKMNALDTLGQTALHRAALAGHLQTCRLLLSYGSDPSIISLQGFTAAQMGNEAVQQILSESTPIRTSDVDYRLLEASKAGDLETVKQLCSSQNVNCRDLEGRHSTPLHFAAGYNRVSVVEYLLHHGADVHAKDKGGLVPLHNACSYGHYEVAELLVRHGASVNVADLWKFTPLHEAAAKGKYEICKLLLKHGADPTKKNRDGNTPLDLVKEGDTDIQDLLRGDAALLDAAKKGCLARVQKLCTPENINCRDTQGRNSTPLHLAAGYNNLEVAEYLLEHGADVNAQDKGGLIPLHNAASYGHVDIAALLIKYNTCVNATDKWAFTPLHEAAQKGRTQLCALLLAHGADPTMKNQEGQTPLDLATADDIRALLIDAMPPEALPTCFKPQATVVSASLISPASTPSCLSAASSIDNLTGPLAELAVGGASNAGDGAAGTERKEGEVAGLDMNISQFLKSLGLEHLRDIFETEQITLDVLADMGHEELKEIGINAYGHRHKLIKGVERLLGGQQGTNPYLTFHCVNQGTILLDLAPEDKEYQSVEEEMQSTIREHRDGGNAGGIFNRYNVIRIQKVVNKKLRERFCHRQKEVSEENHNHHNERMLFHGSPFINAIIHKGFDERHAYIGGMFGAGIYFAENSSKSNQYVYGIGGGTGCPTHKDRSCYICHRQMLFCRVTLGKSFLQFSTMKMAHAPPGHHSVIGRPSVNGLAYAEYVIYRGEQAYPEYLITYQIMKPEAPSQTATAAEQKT
Summary of the method: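 Chemiluminescent assay of TNKS1-catalysed ribosylation of a protein substrate with biotin-labelled NAD+, detected via streptavidin-HRP; run per kit protocol. Inhibition lowers the signal, and IC50 is the compound concentration halving the normalised readout.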

[2] = tested on: HEK293 FOP control reporter cell line; assay: HEK293 FOP Assay (FOP control vector luciferase reporter); format: cell-based; conditions: Homo sapiens
Summary of the method: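 Stable HEK293 line carrying the FOP vector (randomized, non-functional TCF sites; Geneticin-selected) was run in parallel with the TOP line. Cells were plated 24 h ahead at 10000/well and given recombinant human Wnt-3a at 2500–5 ng/ml. Compounds were tested at 50 μM–15 nM (3.16-fold steps) in CAFTY buffer, pH 7.4, with 2 mM Ca2+ and 0.01% BSA.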

[3] = HEK293 FOP control reporter cell line, 16 hours incubation, compound dilution series 50 μM to 15 nM
[4] = HEK293 FOP control reporter cells, 16 hours, luciferase, dilution series from 50 μM

| IC50 [1] [µM] | Structure (SMILES) | IC50 [2, 3] [µM] | IC50 [2, 4] [µM] | IC50 ([2]; HEK293, 16 h, HEK293 FOP control reporter cell line, 16 hours incubation, compound dilution series 50 μM to 15 nM) [µM] |
| --- | --- | --- | --- | --- |
| 0.33 | CNC(=O)c1nc[nH]c1C(=O)Nc1ccc(NC(=O)c2ccccc2Br)cc1 [Example 37, N^5-{4-[(2-bromobenzoyl)amino]phenyl}-N^4-methyl-1H-imidazole-4,5-dicarboxamide] | 20 | 20 |  |
| 0.18 | O=C(Nc1ccc(NC(=O)c2nc[nH]c2C(=O)NCCN2CCCC(F)(F)C2)cc1)c1ccc(F)cc1Cl [Example 225, N^4-{4-[(2-chloro-4-fluorobenzoyl)amino]phenyl}-N^5-[2-(3,3-difluoropiperidin-1-yl)ethyl]-1H-imidazole-4,5-dicarboxamide] | 44 |  |  |
| > 0.5 | O=C(Nc1ccc(NC(=O)c2ocnc2C(=O)NCCN2CC[C@H](F)C2)cc1)c1ccc(F)cc1Cl [Example 221, N^5-{4-[(2-chloro-4-fluorobenzoyl)amino]phenyl}-N^4-{2-[(3S)-3-fluoropyrrolidin-1-yl]ethyl}-1,3-oxazole-4,5-dicarboxamide] | 12 |  |  |
| 0.02 | C[C@H]1CCCCN1CCNC(=O)c1[nH]cnc1C(=O)Nc1ccc(NC(=O)c2ccc(F)cc2Cl)cc1 [Example 266, N^4-{4-[(2-chloro-4-fluorobenzoyl)amino]phenyl}-N^5-{2-[(25)-2-methylpiperidin-1-yl]ethyl}-1H-imidazole-4,5-dicarboxamide formic acid salt] | 20 |  |  |
| 0.29 | O=C(Nc1ccc(NC(=O)c2nc[nH]c2C(=O)NCCN2CC[C@H](F)C2)cc1)c1ccc(F)cc1Cl [Example 232, N^4-{4-[(2-chloro-4-fluorobenzoyl)amino]phenyl}-N^5-{2-[(3S)-3-fluoropyrrolidin-1-yl]ethyl}-1H-imidazole-4,5-dicarboxamide] | 35 |  |  |
| > 0.5 | CNC(=O)c1nc[nH]c1C(=O)Nc1ccc(NC(=O)c2c(C)cc(C)cc2C)cc1 [Example 35, N^5-{4-[(mesitylcarbonyl)amino]phenyl}-N^4-methyl-1H-imidazole-4,5-dicarboxamide] |  | ≥ 50 |  |

Further lines, the molecule ahead of its results:

| Structure (SMILES) | IC50 [1] [µM] | IC50 [2, 3] [µM] | IC50 [2, 4] [µM] | IC50 ([2]; HEK293, 16 h, HEK293 FOP control reporter cell line, 16 hours incubation, compound dilution series 50 μM to 15 nM) [µM] |
| --- | --- | --- | --- | --- |
| CC1CCN(CCCNC(=O)c2nc[nH]c2C(=O)Nc2ccc(NC(=O)c3ccc(F)cc3Cl)cc2)CC1 [Example 400, N^5-{4-[(2-chloro-4-fluorobenzoyl)amino]phenyl}-N^4-[3-(4-methylpiperidin-1-yl)propyl]-1H-imidazole-4,5-dicarboxamide] | 0.02 | 13 |  |  |
| O=C(Nc1ccc(NC(=O)c2nc[nH]c2C(=O)N[C@@H]2CCNC2)cc1)c1ccc(F)cc1Cl [Example 282, N^4-{4-[(2-chloro-4-fluorobenzoyl)amino]phenyl}-N^5-[(3R)-pyrrolidin-3-yl]-1H-imidazole-4,5-dicarboxamide hydrochloride salt] | 0.06 |  |  | 50 |
| COc1cc(NC(=O)c2[nH]cnc2C(=O)NCCN2CCCCC2)ccc1NC(=O)c1ccc(F)cc1Cl [Example 97, N^5-{4-[(2-chloro-4-fluorobenzoyl)amino]-3-methoxyphenyl}-N^4-[2-(piperidin-1-yl)ethyl]-1H-imidazole-4,5-dicarboxamide] | 0.09 | 29 |  |  |
| O=C(Nc1ccc(NC(=O)c2[nH]cnc2C(=O)NC2CC2)cc1)c1ccc(F)cc1Cl [Example 45, N^5-{4-[(2-chloro-4-fluorobenzoyl)amino]phenyl}-N^4-cyclopropyl-1H-imidazole-4,5-dicarboxamide] | 0.07 | 40 |  |  |
| O=C(Nc1ccc(NC(=O)c2nc[nH]c2C(=O)NCCN2CCC(F)(F)CC2)cc1)c1ccc(F)cc1Br [Example 215, N^4-{4-[(2-bromo-4-fluorobenzoyl)amino]phenyl}-N^5-[2-(4,4-difluoropiperidin-1-yl)ethyl]-1H-imidazole-4,5-dicarboxamide] | 0.21 | 29.5 |  |  |
